Data reported in patent US10168342B2, “Lipid probes and uses thereof” (THE SCRIPPS RESEARCH INSTITUTE, priority 2015, dated 2019).
Where two headings read alike, the source gives them in different places.

Key:
[1] = biological target: T1, AEA-DA lipid probe targets in Neuro2a cells (Mus musculus, UniProt Q8BVE8)
T1 sequence (Q8BVE8 1-1365): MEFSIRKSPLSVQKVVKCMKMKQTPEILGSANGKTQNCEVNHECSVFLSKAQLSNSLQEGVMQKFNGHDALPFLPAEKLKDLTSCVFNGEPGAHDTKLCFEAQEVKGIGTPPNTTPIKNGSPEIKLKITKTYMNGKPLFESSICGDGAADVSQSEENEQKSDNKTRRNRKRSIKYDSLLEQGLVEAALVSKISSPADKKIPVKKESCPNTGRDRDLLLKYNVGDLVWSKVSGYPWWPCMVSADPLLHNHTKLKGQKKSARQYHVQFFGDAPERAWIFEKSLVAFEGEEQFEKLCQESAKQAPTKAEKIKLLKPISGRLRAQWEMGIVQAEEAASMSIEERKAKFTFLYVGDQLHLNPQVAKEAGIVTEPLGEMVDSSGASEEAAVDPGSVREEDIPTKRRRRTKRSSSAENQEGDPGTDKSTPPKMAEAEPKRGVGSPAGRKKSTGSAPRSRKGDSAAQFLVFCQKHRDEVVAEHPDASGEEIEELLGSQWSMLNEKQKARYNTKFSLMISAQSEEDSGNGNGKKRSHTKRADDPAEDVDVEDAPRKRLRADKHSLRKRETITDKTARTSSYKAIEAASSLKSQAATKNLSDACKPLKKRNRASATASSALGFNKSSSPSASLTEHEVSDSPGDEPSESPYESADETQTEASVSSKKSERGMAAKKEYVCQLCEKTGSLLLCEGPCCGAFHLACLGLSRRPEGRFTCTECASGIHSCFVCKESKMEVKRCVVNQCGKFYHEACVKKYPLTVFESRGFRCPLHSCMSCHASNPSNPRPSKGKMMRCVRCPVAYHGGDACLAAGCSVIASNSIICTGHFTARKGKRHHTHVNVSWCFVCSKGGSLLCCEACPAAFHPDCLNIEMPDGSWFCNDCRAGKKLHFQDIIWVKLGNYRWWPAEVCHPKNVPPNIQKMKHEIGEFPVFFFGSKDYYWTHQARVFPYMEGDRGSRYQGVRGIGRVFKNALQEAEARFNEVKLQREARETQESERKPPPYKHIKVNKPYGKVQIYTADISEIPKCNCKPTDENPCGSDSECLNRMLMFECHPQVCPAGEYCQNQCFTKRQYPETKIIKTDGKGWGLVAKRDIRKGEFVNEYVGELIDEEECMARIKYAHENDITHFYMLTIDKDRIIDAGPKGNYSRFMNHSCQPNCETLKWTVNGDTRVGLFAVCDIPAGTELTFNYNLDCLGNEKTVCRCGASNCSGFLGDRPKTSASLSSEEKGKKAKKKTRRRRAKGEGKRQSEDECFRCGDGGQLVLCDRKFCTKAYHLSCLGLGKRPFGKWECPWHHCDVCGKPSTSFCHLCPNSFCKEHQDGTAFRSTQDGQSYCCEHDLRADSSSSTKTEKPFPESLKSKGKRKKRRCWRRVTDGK

[2] = biological target: T2, AEA-DA lipid probe targets in Neuro2a cells (Mus musculus, UniProt Q8C0K5)
T2 sequence (Q8C0K5 1-332): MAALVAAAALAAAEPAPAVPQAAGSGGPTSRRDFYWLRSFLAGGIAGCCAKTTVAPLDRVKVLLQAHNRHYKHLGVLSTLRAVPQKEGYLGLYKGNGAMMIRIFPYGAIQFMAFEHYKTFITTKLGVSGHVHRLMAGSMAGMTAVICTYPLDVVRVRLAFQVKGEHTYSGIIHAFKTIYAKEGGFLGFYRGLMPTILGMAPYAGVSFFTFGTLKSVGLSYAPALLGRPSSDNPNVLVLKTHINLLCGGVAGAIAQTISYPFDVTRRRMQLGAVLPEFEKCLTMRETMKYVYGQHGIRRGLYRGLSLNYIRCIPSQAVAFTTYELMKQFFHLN

[3] = biological target: AEA-DA lipid probe targets in Neuro2a cells (Mus musculus, UniProt Q3UV70); conditions: protein Pdp1; Neuro2a cells; competitor 25 μM
Sequence of AEA-DA lipid probe targets in Neuro2a cells (Mus musculus, UniProt Q3UV70) (Q3UV70 72-538): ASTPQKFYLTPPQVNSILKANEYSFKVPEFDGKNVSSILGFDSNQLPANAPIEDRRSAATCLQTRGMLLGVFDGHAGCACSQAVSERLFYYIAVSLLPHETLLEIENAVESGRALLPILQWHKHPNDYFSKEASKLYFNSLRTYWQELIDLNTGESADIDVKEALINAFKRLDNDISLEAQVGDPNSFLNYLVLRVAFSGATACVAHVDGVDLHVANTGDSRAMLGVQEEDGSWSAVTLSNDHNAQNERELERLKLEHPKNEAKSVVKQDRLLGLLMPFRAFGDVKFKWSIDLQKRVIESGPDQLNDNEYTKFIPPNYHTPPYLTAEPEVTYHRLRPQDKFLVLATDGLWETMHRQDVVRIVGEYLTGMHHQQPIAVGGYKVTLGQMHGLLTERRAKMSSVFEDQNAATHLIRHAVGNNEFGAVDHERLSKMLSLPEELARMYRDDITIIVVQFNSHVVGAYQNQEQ

[4] = biological target: AEA-DA lipid probe targets in Neuro2a cells (Mus musculus, UniProt Q99KI3); conditions: competitor 25 μM
Sequence of AEA-DA lipid probe targets in Neuro2a cells (Mus musculus, UniProt Q99KI3) (Q99KI3 whole entry): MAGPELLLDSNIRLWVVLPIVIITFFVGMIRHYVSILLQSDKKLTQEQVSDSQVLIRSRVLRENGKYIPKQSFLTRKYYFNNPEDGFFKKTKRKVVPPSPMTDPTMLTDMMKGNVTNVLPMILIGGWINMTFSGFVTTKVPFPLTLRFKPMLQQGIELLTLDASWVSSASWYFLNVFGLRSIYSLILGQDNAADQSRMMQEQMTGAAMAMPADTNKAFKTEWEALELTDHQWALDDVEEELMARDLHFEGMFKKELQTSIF

[5] = biological target: AEA-DA lipid probe targets in Neuro2a cells (Mus musculus, UniProt Q8VCL2); conditions: competitor 25 μM
Sequence of AEA-DA lipid probe targets in Neuro2a cells (Mus musculus, UniProt Q8VCL2) (Q8VCL2 42-255): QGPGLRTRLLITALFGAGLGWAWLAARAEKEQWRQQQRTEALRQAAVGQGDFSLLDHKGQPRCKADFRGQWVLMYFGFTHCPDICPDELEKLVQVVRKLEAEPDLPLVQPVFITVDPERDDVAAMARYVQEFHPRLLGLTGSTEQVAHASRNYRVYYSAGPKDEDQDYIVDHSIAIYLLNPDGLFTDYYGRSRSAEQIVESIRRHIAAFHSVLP

**Q.** What does the source list for `CCCCC/C=C\C/C=C\C/C=C\C/C=C\CCCC(=O)NCCO` [AEA, anandamide, reference compound]?
**A.** SILAC ratio Whsc1 ([1]; competitor 200 μM): 1.0; SILAC ratio Slc25a16 ([2]; competitor 200 μM): 1.5

**Q.** How did the “SILAC ratio (AEA-DA competition)” value [3] turn out when `O=C(/C=C/c1cccnc1)NCCCCC1CCN(C(=O)c2ccccc2)CC1` [FK-866, reference compound] was run?
**A.** 0.9

**Q.** What does the source list for `CN1CCN(C(=O)c2c(-c3ccccc3)c3cc([N+](=O)[O-])ccc3n2C)CC1` [KML110, (1-Methyl-5-nitro-3-phenyl-1H-indol-2-yl)(4-methylpiperazin-1-yl)methanone]?
**A.** SILAC ratio Emc3 [4]: 1.0; SILAC ratio Sco2 [5]: 1.5

**Q.** Which “SILAC ratio Whsc1” value ([1]; competitor 10 μM) does the source give for `CN1CCN(C(=O)c2[nH]c3ccc([N+](=O)[O-])cc3c2-c2ccccc2)CC1` [MJN228, (4-Methylpiperazin-1-yl)(5-nitro-3-phenyl-1H-indol-2-yl)methanone] here?
**A.** 1.4

**Q.** And the “SILAC ratio Whsc1” value ([1]; competitor 25 μM)?
**A.** 1.2

**Q.** What about the “SILAC ratio Whsc1” value ([1]; competitor 100 μM) of the same compound?
**A.** 1.6

**Q.** And the “SILAC ratio Slc25a16” value ([2]; competitor 10 μM)?
**A.** 1.2

**Q.** And the “SILAC ratio Slc25a16” value ([2]; competitor 25 μM)?
**A.** 1.1

**Q.** What about the “SILAC ratio (AEA-DA competition)” value [3] of the same compound?
**A.** 1.4

**Q.** Which “SILAC ratio Emc3” value [4] does the source give for `C=CCN(C)CCCCCCOc1ccc(C(=O)c2ccc(Br)cc2)c(F)c1` [Ro 48-8071, reference compound] here?
**A.** 1.5

**Q.** What about the “SILAC ratio Sco2” value [5] of the same compound?
**A.** 1.0
